Test: Antiproliferative activity against human MDA-MB-231 cells after 96 hrs by SRB assay
Format: functional, cell-based
Details: MDA-MB-231, 96 h

| Compound | IC50 |
| --- | --- |
| COc1cc2c(cc1C(=O)Nc1ccc(F)cc1)CC[C@H]1C(C)(C)[C@@H](O)CC[C@]21C | 2.4 µM |
| COc1cc2c(cc1C(=O)Nc1ccc(O)cc1)CC[C@H]1C(C)(C)[C@@H](O)CC[C@]21C | 1.9 µM |
| COc1ccc(OC(=O)c2cc3c(cc2OC)[C@@]2(C)CC[C@H](O)C(C)(C)[C@@H]2CC3)cc1 | 14.3 µM |
| COc1cc2c(cc1C(=O)Nc1ccccc1F)CC[C@H]1C(C)(C)[C@@H](O)CC[C@]21C | > 25 µM |
| COc1cc2c(cc1C(=O)N(C)c1ccc(F)cc1)CC[C@H]1C(C)(C)[C@@H](O)CC[C@]21C | > 25 µM |
| COc1cc2c(cc1C(=O)Nc1cccc(Cl)c1)CC[C@H]1C(C)(C)[C@@H](O)CC[C@]21C | 0.99 µM |

Test: Antiproliferative activity against human MCF7 cells after 96 hrs by SRB assay
Format: functional, cell-based
Details: MCF7, 96 h

| Compound | IC50 |
| --- | --- |
| COc1cc2c(cc1C(=O)Nc1ccc(F)cc1)CC[C@H]1C(C)(C)[C@@H](O)CC[C@]21C | 0.82 µM |
| COc1cc2c(cc1C(=O)Nc1ccc(O)cc1)CC[C@H]1C(C)(C)[C@@H](O)CC[C@]21C | 3.07 µM |
| COc1ccc(OC(=O)c2cc3c(cc2OC)[C@@]2(C)CC[C@H](O)C(C)(C)[C@@H]2CC3)cc1 | > 25 µM |
| COc1cc2c(cc1C(=O)Nc1ccccc1F)CC[C@H]1C(C)(C)[C@@H](O)CC[C@]21C | > 25 µM |
| COc1cc2c(cc1C(=O)N(C)c1ccc(F)cc1)CC[C@H]1C(C)(C)[C@@H](O)CC[C@]21C | > 25 µM |
| COc1cc2c(cc1C(=O)Nc1cccc(Cl)c1)CC[C@H]1C(C)(C)[C@@H](O)CC[C@]21C | 2.23 µM |

Test: Antiproliferative activity against human T47D cells after 96 hrs by SRB assay
Format: functional, cell-based
Details: not given

| Compound | IC50 |
| --- | --- |
| COc1cc2c(cc1C(=O)Nc1ccc(F)cc1)CC[C@H]1C(C)(C)[C@@H](O)CC[C@]21C | 0.04 µM |
| COc1cc2c(cc1C(=O)Nc1ccc(O)cc1)CC[C@H]1C(C)(C)[C@@H](O)CC[C@]21C | 0.07 µM |
| COc1ccc(OC(=O)c2cc3c(cc2OC)[C@@]2(C)CC[C@H](O)C(C)(C)[C@@H]2CC3)cc1 | 5.35 µM |
| COc1cc2c(cc1C(=O)Nc1ccccc1F)CC[C@H]1C(C)(C)[C@@H](O)CC[C@]21C | > 25 µM |
| COc1cc2c(cc1C(=O)N(C)c1ccc(F)cc1)CC[C@H]1C(C)(C)[C@@H](O)CC[C@]21C | > 25 µM |
| COc1cc2c(cc1C(=O)Nc1cccc(Cl)c1)CC[C@H]1C(C)(C)[C@@H](O)CC[C@]21C | 0.26 µM |

From ChEMBL document CHEMBL3856189, “Synthesis of novel diterpenoid analogs with in-vivo antitumor activity” (Eur J Med Chem, 2016)
